Data reported in ChEMBL document CHEMBL3045670, “Protective effect of selenium in Broccoli (Brassica oleracea) plants subjected to cadmium exposure” (J Agric Food Chem, 2008).
Activity calls are given as the source filed them. No cut-off for these calls is given here.

Columns and labels:
[1] = tested on: Fruit; test: Effect on cadmium level in fruits of Brassica oleracea (Broccoli) seedlings grown in hydroponic culture containing 1 mg/L in presence of 1 mg/L CdCl2 measured after 40 days after compound treatment; type: ADME; conditions: 960 h
[2] = tested on: Root; test: Drug level in roots of Brassica oleracea (Broccoli) seedlings grown in hydroponic culture containing compound at 1 mg/L assessed as SeMet level measured after 40 days after compound treatment; type: ADME; conditions: 960 h
[3] = tested on: Leaf; test: Drug level in leaves of Brassica oleracea (Broccoli) seedlings grown in hydroponic culture containing compound at 1 mg/L in presence of 1 mg/L CdCl2 assessed as SeMet level measured after 40 days after compound treatment; type: ADME; conditions: 960 h
[4] = tested on: Brassica oleracea; test: (§1) Protective effect against cadmium-induced toxicity in Brassica oleracea (Broccoli) seedlings grown in hydroponic culture containing compound at 1 mg/L in presence of 1 mg/L CdCl2 assessed as chlorophyll level assessed per dry weight after 10 days after compound treatment by spectrophotometry (reference value: 120 +/- 8 mg/kg dry weight); type: functional
[5] = tested on: Fruit; test: Drug level in fruits of Brassica oleracea (Broccoli) seedlings grown in hydroponic culture containing 1 mg/L in presence of 1 mg/L CdCl2 measured after 40 days after compound treatment; type: ADME; conditions: 960 h
[6] = tested on: Fruit; test: Drug level in fruits of Brassica oleracea (Broccoli) seedlings grown in hydroponic culture containing compound at 1 mg/L in presence of 1 mg/L CdCl2 assessed as Se(IV) level measured after 40 days after compound treatment; type: ADME; conditions: 960 h
[7] = tested on: Root; test: Drug level in roots of Brassica oleracea (Broccoli) seedlings grown in hydroponic culture containing compound at 1 mg/L in presence of 1 mg/L CdCl2 assessed as SeMet level measured after 40 days after compound treatment; type: ADME; conditions: 960 h
[8] = tested on: Brassica oleracea; test: Protective effect against cadmium-induced toxicity in Brassica oleracea (Broccoli) seedlings grown in hydroponic culture containing compound at 1 mg/L in presence of 1 mg/L CdCl2 assessed as attenuation of reduction in tocopherol level after 40 days after compound treatment by spectrophotometry; type: functional; design: scale not given: the % may be the effect or the level left
[9] = tested on: Root; test: Drug level in roots of Brassica oleracea (Broccoli) seedlings grown in hydroponic culture containing compound at 1 mg/L in presence of 1 mg/L CdCl2 assessed as SeMetSeCys level measured after 40 days after compound treatment; type: ADME; conditions: 960 h
[10] = tested on: Leaf; test: Drug level in leaves of Brassica oleracea (Broccoli) seedlings grown in hydroponic culture containing compound at 1 mg/L in presence of 1 mg/L CdCl2 assessed as Se(IV) level measured after 40 days after compound treatment; type: ADME; conditions: 960 h
[11] = tested on: Fruit; test: Drug level in fruits of Brassica oleracea (Broccoli) seedlings grown in hydroponic culture containing compound at 1 mg/L in presence of 1 mg/L CdCl2 assessed as SeMetSeCys level measured after 40 days after compound treatment; type: ADME; conditions: 960 h
[12] = tested on: Leaf; test: Drug level in leaves of Brassica oleracea (Broccoli) seedlings grown in hydroponic culture containing 1 mg/L in presence of 1 mg/L CdCl2 measured after 40 days after compound treatment; type: ADME; conditions: 960 h
[13] = tested on: Root; test: Effect on cadmium level in roots of Brassica oleracea (Broccoli) seedlings grown in hydroponic culture containing 1 mg/L in presence of 1 mg/L CdCl2 measured after 40 days after compound treatment; type: ADME; conditions: 960 h
[14] = tested on: Brassica oleracea; test: Protective effect against cadmium-induced toxicity in Brassica oleracea (Broccoli) seedlings grown in hydroponic culture containing compound at 1 mg/L in presence of 1 mg/L CdCl2 assessed as reduction in MDA level after 30 days after compound treatment by spectrophotometry; type: functional, organism-based
[15] = tested on: Fruit; test: Drug level in fruits of Brassica oleracea (Broccoli) seedlings grown in hydroponic culture containing compound at 1 mg/L assessed as SeMetSeCys level measured after 40 days after compound treatment; type: ADME; conditions: 960 h
[16] = tested on: Root; test: Drug level in roots of Brassica oleracea (Broccoli) seedlings grown in hydroponic culture containing 1 mg/L measured after 40 days after compound treatment; type: ADME; conditions: 960 h
[17] = tested on: Brassica oleracea; test: Effect on chlorophyll level assessed per dry weight in Brassica oleracea (Broccoli) seedlings grown in hydroponic culture containing compound at 1 mg/L after 40 days after compound treatment (reference value: 181 +/- 23 mg/kg); type: functional
[18] = tested on: Root; test: Drug level in roots of Brassica oleracea (Broccoli) seedlings grown in hydroponic culture containing compound at 1 mg/L in presence of 1 mg/L CdCl2 assessed as Se(IV) level measured after 40 days after compound treatment; type: ADME; conditions: 960 h
[19] = tested on: Brassica oleracea; test: as §1, with “40” for “10”, “118” for “120”, “12” for “8”; type: functional
[20] = tested on: Leaf; test: Drug level in leaves of Brassica oleracea (Broccoli) seedlings grown in hydroponic culture containing compound at 1 mg/L assessed as SeMetSeCys level measured after 40 days after compound treatment; type: ADME; conditions: 960 h
[21] = tested on: Fruit; test: Drug level in fruits of Brassica oleracea (Broccoli) seedlings grown in hydroponic culture containing 1 mg/L measured after 40 days after compound treatment; type: ADME; conditions: 960 h
[22] = tested on: Leaf; test: Effect on cadmium level in leaves of Brassica oleracea (Broccoli) seedlings grown in hydroponic culture containing 1 mg/L in presence of 1 mg/L CdCl2 measured after 40 days after compound treatment; type: ADME; conditions: 960 h
[23] = tested on: Root; test: Drug level in roots of Brassica oleracea (Broccoli) seedlings grown in hydroponic culture containing compound at 1 mg/L assessed as SeMetSeCys level measured after 40 days after compound treatment; type: ADME; conditions: 960 h
[24] = tested on: Leaf; test: Effect on cadmium level in leaves of Brassica oleracea (Broccoli) seedlings grown in hydroponic culture containing 1 mg/L measured after 40 days after compound treatment; type: ADME; conditions: 960 h
[25] = tested on: Root; test: Effect on cadmium level in roots of Brassica oleracea (Broccoli) seedlings grown in hydroponic culture containing 1 mg/L measured after 40 days after compound treatment; type: ADME; conditions: 960 h
[26] = tested on: Leaf; test: Drug level in leaves of Brassica oleracea (Broccoli) seedlings grown in hydroponic culture containing 1 mg/L measured after 40 days after compound treatment; type: ADME; conditions: 960 h
[27] = tested on: Leaf; test: Drug level in leaves of Brassica oleracea (Broccoli) seedlings grown in hydroponic culture containing compound at 1 mg/L assessed as Se(IV) level measured after 40 days after compound treatment; type: ADME; conditions: 960 h
[28] = tested on: Fruit; test: Drug level in fruits of Brassica oleracea (Broccoli) seedlings grown in hydroponic culture containing compound at 1 mg/L assessed as Se(IV) level measured after 40 days after compound treatment; type: ADME; conditions: 960 h
[29] = tested on: Leaf; test: Drug level in leaves of Brassica oleracea (Broccoli) seedlings grown in hydroponic culture containing compound at 1 mg/L assessed as SeMet level measured after 40 days after compound treatment; type: ADME; conditions: 960 h
[30] = tested on: Root; test: Drug level in roots of Brassica oleracea (Broccoli) seedlings grown in hydroponic culture containing 1 mg/L in presence of 1 mg/L CdCl2 measured after 40 days after compound treatment; type: ADME; conditions: 960 h
[31] = tested on: Brassica oleracea; test: Effect on chlorophyll level assessed per dry weight in Brassica oleracea (Broccoli) seedlings grown in hydroponic culture containing compound at 1 mg/L after 10 days after compound treatment (reference value: 200 +/- 26 mg/kg); type: functional
[32] = tested on: Fruit; test: Drug level in fruits of Brassica oleracea (Broccoli) seedlings grown in hydroponic culture containing compound at 1 mg/L in presence of 1 mg/L CdCl2 assessed as SeMet level measured after 40 days after compound treatment; type: ADME; conditions: 960 h
[33] = tested on: Root; test: Drug level in roots of Brassica oleracea (Broccoli) seedlings grown in hydroponic culture containing compound at 1 mg/L assessed as Se(IV) level measured after 40 days after compound treatment; type: ADME; conditions: 960 h
[34] = tested on: Brassica oleracea; test: Reduction in MDA level in Brassica oleracea (Broccoli) seedlings grown in hydroponic culture containing compound at 1 mg/L after 30 days after compound treatment; type: functional, organism-based
[35] = tested on: Brassica oleracea; test: Effect on tocopherol level in Brassica oleracea (Broccoli) seedlings grown in hydroponic culture containing compound at 1 mg/L after 40 days after compound treatment; type: functional, organism-based
[36] = tested on: Fruit; test: Drug level in fruits of Brassica oleracea (Broccoli) seedlings grown in hydroponic culture containing compound at 1 mg/L assessed as SeMet level measured after 40 days after compound treatment; type: ADME; conditions: 960 h
[37] = tested on: Leaf; test: Drug level in leaves of Brassica oleracea (Broccoli) seedlings grown in hydroponic culture containing compound at 1 mg/L in presence of 1 mg/L CdCl2 assessed as SeMetSeCys level measured after 40 days after compound treatment; type: ADME; conditions: 960 h
[38] = tested on: Fruit; test: Effect on cadmium level in fruits of Brassica oleracea (Broccoli) seedlings grown in hydroponic culture containing 1 mg/L measured after 40 days after compound treatment; type: ADME; conditions: 960 h

O=[Se]([O-])[O-].[Na+].[Na+] [SODIUM SELENITE]
Activity [1]: 48 mg/kg | Drug uptake [2]: 6.1 mg/kg | Drug uptake [3]: 0.62 mg/kg | Activity [4]: 177 mg/kg | Drug uptake [5]: 10 mg/kg | Drug uptake [6]: 0.039 mg/kg | Drug uptake [7]: 5.4 mg/kg | Activity [8]: 40% | Drug uptake [9]: 3.4 mg/kg | Drug uptake [10]: 0.09 mg/kg | Drug uptake [11]: 6.5 mg/kg | Drug uptake [12]: 1.54 mg/kg | Activity [13]: 53 mg/kg | Activity [14]: Active | Drug uptake [15]: 12.3 mg/kg | Drug uptake [16]: 20 mg/kg | Activity [17]: 148 mg/kg | Drug uptake [18]: 1.6 mg/kg | Activity [19]: 175 mg/kg | Drug uptake [20]: 0.71 mg/kg | Drug uptake [21]: 27 mg/kg | Activity [22]: 7.5 mg/kg | Drug uptake [23]: 3.6 mg/kg | Activity [24]: 0.2 mg/kg | Activity [25]: 0.36 mg/kg | Drug uptake [26]: 2 mg/kg | Drug uptake [27]: 0.082 mg/kg | Drug uptake [28]: 1.89 mg/kg | Drug uptake [29]: 0.59 mg/kg | Drug uptake [30]: 21 mg/kg | Activity [31]: 155 mg/kg | Drug uptake [32]: 0.24 mg/kg | Drug uptake [33]: 1.4 mg/kg | Activity [34]: Active | Activity [35]: Active | Drug uptake [36]: 7.2 mg/kg | Drug uptake [37]: 0.65 mg/kg | Activity [38]: 0.4 mg/kg
